Data on 61 compounds can be found in the supplement of paper PMC10290057.

Where a name gives a salt, the structure may show the parent alone.
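Further: Luminescence-based viability readout, five doses per compound, normalized against on-plate DMSO and empty-well controls, followed by dose-response curve fitting for every drug.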

This assay concerns HCT116. The assay is described as follows: efficacy (fitted maximal change in viability relative to DMSO control); higher = less cytotoxic (negative = loss of viability). The settings on record: 48 h.
With `COc1cc2c(cc1OC)CN(CCc1ccc(NC(=O)c3cc(OC)c(OC)cc3NC(=O)c3cnc4ccccc4c3)cc1)CC2` [Tariquidar], the efficacy was -11.3%.
`COC1=CC=CC2=C1C(=C(/C(=O)N(C)C3=CC=C(C=C3)C(F)(F)F)C(=O)N2C)/O` [Tasquinimod]: the efficacy is -6.06%.
The figure for `CCOC(=O)c1ccc(C#Cc2ccc3c(c2)C(C)(C)CCS3)nc1` [Tazarotene] is -38.2%; for `CCN(C1CCOCC1)C2=C(C)C(=CC(=C2)C3=CC=C(CN4CCOCC4)C=C3)C(=O)NC\C5=C(C)\C=C(C)/NC5=O` [Tazemetostat] it is -59%; for `F\C1=C\N(C2CCCO2)C(=O)NC1=O` (stereo unspecified) [Tegafur] it is -8.62%.
The value for `CC(=O)N[C@H]1[C@H](O[C@@H]2c3ccc(c(Cl)c3)Oc3cc4cc(c3O[C@@H]3O[C@H](CO)[C@@H](O)[C@H](O)[C@H]3NC(=O)CCCCCCCC(C)C)Oc3ccc(cc3Cl)C[C@H]3NC(=O)[C@H](N)c5ccc(O)c(c5)Oc5cc(O)cc(c5)[C@H](NC3=O)C(=O)N[C@H]4C(=O)N[C@H]3C(=O)N[C@@H]2C(=O)N[C@@H](C(=O)O)c2cc(O)cc(O[C@H]4O[C@H](CO)[C@@H](O)[C@H](O)[C@@H]4O)c2-c2cc3ccc2O)O[C@H](CO)[C@@H](O)[C@@H]1O` [Teicoplanin] was -14.5%.
The figure for `CCC[C@H](NC(=O)[C@@H]1[C@H]2CCC[C@H]2CN1C(=O)[C@@H](NC(=O)[C@@H](NC(=O)c1cnccn1)C1CCCCC1)C(C)(C)C)C(=O)C(=O)NC1CC1` [Telaprevir (VX-950)] is -39.3%; for `CC[C@H]1OC(=O)[C@H](C)C(=O)[C@H](C)[C@@H](O[C@H]2O[C@H](C)C[C@H](N(C)C)[C@H]2O)[C@](C)(OC)C[C@@H](C)C(=O)[C@H](C)[C@H]2N(CCCCn3cnc(-c4cccnc4)c3)C(=O)O[C@]12C` [Telithromycin] it is -11.9%; for `CCCc1nc2c(C)cc(-c3nc4ccccc4n3C)cc2n1Cc1ccc(-c2ccccc2C(=O)O)cc1` [Telmisartan] it is -20.9%.
Turning to `CCOC(=O)[C@@H](N)Cc1ccc(-c2cc(O[C@H](c3ccc(Cl)cc3-n3ccc(C)n3)C(F)(F)F)nc(N)n2)cc1` [Telotristat Etiprate (LX 1606 Hippurate)], the efficacy was -95.9%.
The value for `CCOC(=O)[C@H](CCc1ccccc1)N[C@H]1CS[C@H](c2cccs2)CN(CC(=O)O)C1=O.Cl` [Temocapril hydrochloride] was 10.5%.
The value for `CO[C@H]1C[C@@H]2CC[C@@H](C)[C@@](O)(O2)C(=O)C(=O)N2CCCC[C@H]2C(=O)O[C@H]([C@H](C)C[C@@H]2CC[C@@H](OC(=O)C(C)(CO)CO)[C@H](OC)C2)CC(=O)[C@H](C)/C=C(\C)[C@@H](O)[C@@H](OC)C(=O)[C@H](C)C[C@H](C)/C=C/C=C/C=C/1C` [Temsirolimus] was -13.9%.
The value for `CC[C@H](NC1=C2[NH]C=NC2=NC=N1)/C3=C(/C(=O)C4=CC=CC=C4O3)C5=CC=CC(=C5)F` [Tenalisib] was -39.1%.
On to `COc1ccc2[nH]c([S+]([O-])Cc3ncc(C)c(OC)c3C)nc2n1` (stereo unspecified) [Tenatoprazole], for which the efficacy is -10.8%.
The value for `CN1\C(=C(\O)C2=C(C=CS2)[S+]1([O-])=O)C(=O)NC3=CC=CC=N3` [Tenoxicam] was -10.7%; that for `C/C(O)=C(\C#N)C(=O)Nc1ccc(C(F)(F)F)cc1` [Teriflunomide] was -52.2%.
The figure for `CCN(CC)CCOc1ccc(Cc2ccccc2)cc1` [Tesmilifene hydrochloride] is -27%; for `C[C@]12CC[C@H]3[C@@H](CCC/4=C/C(=O)CC[C@]34C)[C@@H]1CC[C@@H]2OC(=O)CCC5CCCC5` [Testosterone cypionate] it is -12%; for `COc1cc2c(cc1OC)C1CC(=O)C(CC(C)C)CN1CC2` (stereo unspecified) [Tetrabenazine] it is -45.5%.
The figure for `CN(C)[C@H]\1[C@@H]2C[C@H]3C(=C(O)\[C@]2(O)C(=O)\C(=C1O)C(N)=O)/C(=O)C4=C(O)C=CC=C4[C@@]3(C)O` [Tetracycline hydrochloride] is 8.73%; for `O=C1NC(O)CCN1[C@@H]1O[C@H](CO)[C@@H](O)[C@H]1O` (stereo partly specified) [Tetrahydrouridine] it is -11.8%; for `O=C1CCC(N2C(=O)c3ccccc3C2=O)C(=O)N1` (stereo unspecified) [Thalidomide] it is -16.7%.
Take `Cn1c(=O)c2[nH]cnc2n(C)c1=O` [Theophyllamine]: the efficacy is -11.6%.
Take `c1ccc2[nH]c(-c3cscn3)nc2c1` [Thiabendazole]: the efficacy was -7.02%.
On to `S=P(N1CC1)(N1CC1)N1CC1` [ThioTEPA], for which the efficacy is -13.1%.
The figure for `Cc1ccsc1C(=CCCN1CCC[C@@H](C(=O)O)C1)c1sccc1C` [Tiagabine hydrochloride] is -8.94%; for `Clc1ccccc1CN1CCc2sccc2C1` [Ticlopidine hydrochloride] it is -21.1%; for `O=c1sn(-c2cccc3ccccc23)c(=O)n1Cc1ccccc1` [Tideglusib] it is -7.08%.
In the case of `CN(C)[C@H]\1[C@@H]2C[C@@H]\3CC4=C(C(=C(NC(=O)CNC(C)(C)C)C=C4N(C)C)O)C(=O)C3=C(O)/[C@@]2(O)C(=O)\C(=C1O)C(N)=O` [Tigecycline], the efficacy is -18.8%.
`O=c1oc2cc(O)ccc2s1` [Tioxolone]: the efficacy was -6.66%.
The value for `O=C(O)C(=O)c1cn(Cc2ccccc2)c2ccc(-c3ccc(OC(F)(F)F)cc3)cc12` [Tiplasinin] was -22.4%; that for `NC[C@H]1O[C@H](O[C@H]2[C@H](O)[C@@H](O[C@H]3O[C@H](CO)[C@@H](O)[C@H](N)[C@H]3O)[C@H](N)C[C@@H]2N)[C@H](N)C[C@@H]1O` [Tobramycin] was -8.81%; that for `Cc1ccc(C(=O)c2cc(O)c(O)c([N+](=O)[O-])c2)cc1` [Tolcapone] was -83.1%.
The figure for `CC1=CC(=CC=C1)OC/2=C/NC(=O)/N=C2` [Tolimidone] is 6.41%.
The figure for `Cc1cccc(N(C)C(=S)Oc2ccc3ccccc3c2)c1` [Tolnaftate] is -28.8%; for `Cc1ccc(O)c(C(CCN(C(C)C)C(C)C)c2ccccc2)c1.Cl` (stereo unspecified) [Tolterodine tartrate] it is -19.8%; for `Cc1ccccc1C(=O)Nc1ccc(C(=O)N2CCCC(O)c3cc(Cl)ccc32)c(C)c1` (stereo unspecified) [Tolvaptan] it is -64.3%.
Regarding `COc1ccc(/C=C/C(=O)Nc2ccccc2C(=O)O)cc1OC` [Tranilast], the efficacy was -8.29%.
The figure for `N[C@@H]1C[C@H]1c1ccccc1` [Tranylcypromine] is -9.58%; for `CC1=C(/C=C/C(C)=C/C=C/C(C)=C/C(=O)O)C(C)(C)CCC1` [Tretinoin] it is -22.5%.
The figure for `NC(=S)N/N=C/c1ncccc1N` [Triapine] is -21.4%.
The figure for `N[S+](=O)([O-])c1cc2c(cc1Cl)NC(C(Cl)Cl)N[S+]2(=O)[O-]` (stereo unspecified) [Trichlormethiazide] is 6.79%; for `CC1=CC2=C(O1)C(=C3OC(=O)\C=C(C)/C3=C2)C` [Trioxsalen] it is -19.8%.
With `O=C(CCCCCCC(=O)Nc1ccc([C@H]2O[C@@H](CSc3nc(-c4ccccc4)c(-c4ccccc4)o3)C[C@@H](c3ccc(CO)cc3)O2)cc1)NO` [Tubacin], the efficacy was -23.7%.
The value for `CC(C)OC(=O)/C1=C/N(CC(C)(C)C2=C1[NH]C3=CC=CC=C23)C(=O)C4=CC=C(F)C(=C4)F` [Turofexorate isopropyl] was -17.9%; that for `N#C/C(=C\c1ccc(O)c(O)c1)C(=O)NCc1ccccc1` [Tyrphostin B42] was -71.9%.
As for `COc1cc2c(NC3CCN(C)CC3)nc(N3CCCN(C)CC3)nc2cc1OCCCN(C)C` [UNC-0224], the efficacy is -57.9%.
The figure for `O=C(c1ccc(C(=O)N2CCC(N3CCCC3)CC2)c(Nc2ccccc2)c1)N1CCC(N2CCCC2)CC1` [UNC-1215] is -10.4%.
The figure for `CCCC\1=C(/CNC(=O)C2=CC(=CC3=C2C=N[N]3C(C)C)C4=CC=C(N=C4)N5CCN(CC5)C(C)C)C(=O)NC(=C1)\C` [UNC-1999] is -25.5%; for `CCN(CC)CCCC[C@H](NC(=O)[C@H](CC(C)C)NC(=O)[C@H](C)NC(=O)[C@H](Cc1ccccc1)NC(=O)c1ccc(C(C)(C)C)cc1)C(=O)N[C@@H](CO)C(=O)OC` [UNC-3866] it is -18.9%.
The value for `OC[C@H]1O[C@H]([C@H](O)[C@@H]1O)N2\C=C/C(=O)NC2=O` [Uridine] was -9.88%.
In the case of `C[C@@H]1CC[C@@]2(CC[C@]3(C)\C(=C/C[C@@H]4[C@@]5(C)CC[C@H](O)C(C)(C)[C@@H]5CC[C@@]34C)[C@@H]2[C@H]1C)C(O)=O` [Ursolic acid], the efficacy amounted to 6.32%.
On to `CC[C@H](NC(=O)[C@H](C[S+](=O)([O-])CC1CC1)N[C@@H](c1ccc(F)cc1)C(F)(F)F)C(=O)C(=O)NC1CC1` [VBY-825], for which the efficacy was -25.3%.
In the case of `C[S+](=O)([O-])c1ccc(-c2cnc(N)c(C(=O)Nc3ccccc3)n2)cc1` [VE-821], the efficacy was -26.1%.
The figure for `CC(C)(C)C#Cc1cc(N(C(=O)[C@H]2CC[C@H](C)CC2)[C@H]2CC[C@@H](O)CC2)c(C(=O)O)s1` [VX-222] is -59.3%; for `FC1=CC=C(SC/2=N/N3\C=N/C(=O)/C(=C3/C=C2)C4=C(Cl)C=CC=C4Cl)C(=C1)F` [VX-745] it is -34.7%; for `CCO[C@@H]1OC(=O)C[C@@H]1NC(=O)[C@@H]1CCCN1C(=O)[C@@H](NC(=O)c1ccc(N)c(Cl)c1)C(C)(C)C` [VX-765] it is 23.5%.
The figure for `O=C(O)CNC(=O)c1ncc(-c2cccc(Cl)c2)cc1O` [Vadadustat] is -15.6%.
The value for `CC(C)[C@H](N)C(=O)OCCOC[N]1C=NC2=C1\N=C(N)/NC2=O` [Valaciclovir] was 8.42%; that for `Cc1onc(-c2ccccc2)c1-c1ccc([S+](N)(=O)[O-])cc1` [Valdecoxib] was -36.8%; that for `CCCC(CCC)C(=O)[O-]` [Valproic acid sodium salt] was 14%.
